The record followed here is patent US6037158A, “Alcohol dehydrogenase and its use for the enzymatic production of chiral hydroxy compounds” (priority 1996, dated 2000).

This assay deals with T1, alcohol dehydrogenase from L. brevis (Levilactobacillus brevis, UniProt Q84EX5).
T1 sequence (Q84EX5 2-252): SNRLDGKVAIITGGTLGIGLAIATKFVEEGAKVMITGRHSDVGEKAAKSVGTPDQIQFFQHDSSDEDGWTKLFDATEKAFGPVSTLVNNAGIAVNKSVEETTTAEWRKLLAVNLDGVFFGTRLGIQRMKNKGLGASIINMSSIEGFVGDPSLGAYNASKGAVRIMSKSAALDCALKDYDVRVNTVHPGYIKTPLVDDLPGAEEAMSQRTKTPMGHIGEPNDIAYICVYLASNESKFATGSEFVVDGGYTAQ
As to the kind of experiment: biochemical. The following applies: for Activity: 0.19 mM NADPH, pH 7.0, purified enzyme diluted 1:10. Type of assay: biochemical. The procedure:
A series of other ketones and keto esters were used instead of acetophenone and it was tested whether these can be reduced by enzyme catalysis.
The following test mixture was used for this:
970 μl triethanolamine buffer (50 mM; pH 7.0, containing 10 mM keto compound)
20 μl NADPH (0.19 mM in the test)
Some of the ketones were also tested at a concentration of 1 mM in order to verify a possible substrate inhibition at 10 mM.

Where [1] appears, read: relative to acetophenone = 100, 10 mM keto compound, read-out: Relative act.

Read-outs that look alike come from different tables or passages of the source.

For the setting “10 mM keto compound”, `CCc1ccc(C(C)=O)cc1` [4-ethylacetophenone] yielded an Activity of 2.13 U/ml. The activity at 10000 µM (read-out: Relative act.) was 65%.

In turn, `CC(=O)c1ccccc1Cl` [2-Cl-acetophenone] displayed an Activity (10 mM keto compound) of 0.33 U/ml. Further, the activity at 10000 µM (read-out: Relative act.) was determined as 10%.

In turn, `COC(=O)C(C)=O` [methyl pyruvate] had an Activity (10 mM keto compound) of 3.22 U/ml. The activity at 10000 µM under setting [1] was determined as 98%.

Compound `CCOC(=O)CC(=O)CCl` [4-Cl-acetic acid ethyl ester] displayed an Activity (10 mM keto compound) of 3.04 U/ml. For the same compound, the activity at 10000 µM (read-out: Relative act.) was 93%.

Under “10 mM keto compound”, `CCOC(=O)CC(=O)c1ccccc1` [benzoyl acetic acid ethyl ester] gave an Activity of 1.14 U/ml. Under setting [1], the activity at 10000 µM stood at 35%.

With `CCOC(=O)C(C)=O` [ethyl pyruvate], where the note is “10 mM keto compound”, the Activity was determined as 8.10 U/ml. For the same compound, the activity at 10000 µM under setting [1] was found to be 248%.

Turning to `O=Cc1ccccc1` [benzaldehyde], for the setting “10 mM keto compound”, the Activity was 0.30 U/ml. The activity at 10000 µM (read-out: Relative act.) was found to be 9%.

In turn, `CC(=O)CCc1ccccc1` [benzylacetone] gave an Activity (10 mM keto compound) of 3.24 U/ml. Moreover, the activity at 10000 µM (read-out: Relative act., relative to acetophenone = 100, 10 mM keto compound) is 99%.

For the compound `CC(=O)Cc1ccccc1` [benzylmethyl ketone], where the note is “10 mM keto compound”, the Activity was determined as 0.36 U/ml. In addition, for the setting “read-out: Relative act.”, the activity at 10000 µM was 11%.

`CC(=O)c1ccc(Cl)cc1` [4-Cl-acetophenone] came in with an Activity (10 mM keto compound) of 6.63 U/ml. Further, the activity at 10000 µM (read-out: Relative act.) stood at 203%.

Under “10 mM keto compound”, `CCOC(=O)C(C)C(C)=O` (stereo not shown) [ethyl-2-methylacetoacetate] registered an Activity of 0.84 U/ml. For the same compound, the activity at 10000 µM under setting [1] worked out at 26%.

`CCC(=O)c1ccccc1` [propiophenone] had an Activity (10 mM keto compound) of 0.55 U/ml. Further, the activity at 10000 µM (read-out: Relative act.) turned out to be 17%.

For the compound `CCCCOC(C)=O` [acetic acid butyl ester], for the setting “10 mM keto compound”, the Activity came to 2.07 U/ml. For the same compound, under “read-out: Relative act.”, the activity at 10000 µM worked out at 64%.

As to `CCOC(=O)CC(C)=O` [aceto acetic acid ethyl ester], the Activity (10 mM keto compound) amounted to 3.54 U/ml. Moreover, for the setting “read-out: Relative act.”, the activity at 10000 µM was 109%.

With `CCOC(=O)C1CCCCC1=O` (stereo not shown) [cyclohexanone-2-carboxylic acid ethyl ester], the Activity (10 mM keto compound) amounted to 0.41 U/ml. Besides, under setting [1], the activity at 10000 µM worked out at 13%.

As to `CCOC(=O)CC1CCCCC1=O` (stereo not shown) [cyclohexanone-2-acetic acid ethyl ester], the Activity (10 mM keto compound) came to 0.14 U/ml. The activity at 10000 µM under setting [1] was found to be 4%.

With `CC1CCCCC1=O` (stereo not shown) [2-methylcyclohexanone], where the note is “10 mM keto compound”, the Activity is on record as 6.25 U/ml. Further, the activity at 10000 µM under setting [1] stood at 192%.

For the compound `CCOC(=O)C(F)(F)F` [trifluoroacetic acid ethyl ester], the Activity (10 mM keto compound) was found to be 0.50 U/ml. The activity at 10000 µM (read-out: Relative act.) turned out to be 15%.

Consider `CCOC(=O)CC(=O)C(C)C` [isobutyrylacetic acid ethyl ester], for which, under “10 mM keto compound”, the Activity is 1.93 U/ml. The activity at 10000 µM under setting [1] came to 59%.

Compound `CCCC(=O)CC(=O)OCC` [ethylbutyryl acetate] registered an Activity (10 mM keto compound) of 2.21 U/ml. Besides, the activity at 10000 µM under setting [1] was determined as 68%.

The compound `CCOC(=O)CCCC(C)=O` [4-acetylbutyric acid ethyl ester] returned an Activity (10 mM keto compound) of 2.84 U/ml. In addition, under setting [1], the activity at 10000 µM was 87%.

`CCOC(=O)C(=O)CCc1ccccc1` [2-oxo-4-phenylbutyric acid ethyl ester] registered an Activity (10 mM keto compound) of 4.60 U/ml. Further, the Relative act. (relative to acetophenone = 100, 10 mM keto compound) worked out at 141%.

With `CC(=O)c1cccc(Cl)c1` [3-Cl-acetophenone], where the note is “10 mM keto compound”, the Activity stood at 4.80 U/ml. Also, the activity at 10000 µM (read-out: Relative act.) stood at 147%.

`COC(=O)CC(C)=O` [aceto acetic acid methyl ester] registered an Activity (10 mM keto compound) of 3.81 U/ml. Also, the activity at 10000 µM (read-out: Relative act.) was determined as 117%.

Turning to `CCOC(=O)CC(=O)CC` [3-oxo-n-valeric acid ethyl ester], the Activity (10 mM keto compound) worked out at 2.29 U/ml. The activity at 10000 µM under setting [1] turned out to be 70%.

With `CCOC(=O)CCC(C)=O` [laevulinic acid ethyl ester], the Activity (10 mM keto compound) was found to be 2.99 U/ml. In addition, the activity at 10000 µM under setting [1] was 92%.
